Assay results taken from PubChem BioAssay AID1648 (Sanford-Burnham Center for Chemical Genomics, 2009).
The source made the active and inactive calls. No rule for the calls is given here.

These compounds were tested against Serine/threonine-protein kinase mTOR (Homo sapiens) (UniProt P42345) (assay: mTOR FRB domain ligand binding – biophysical, NMR (AID 1648)). Details: NMR binding to FRB domain, chemical shift.
Chain of Serine/threonine-protein kinase mTOR (Homo sapiens) (P42345 2015-2114): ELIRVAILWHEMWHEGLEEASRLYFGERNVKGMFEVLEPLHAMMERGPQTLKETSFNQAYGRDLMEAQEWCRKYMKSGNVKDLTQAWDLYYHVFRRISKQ

| SMILES | Kd |
| --- | --- |
| Cc1cc(O)c2c(c1O)C(=O)c1c(O)cc(C)c(O)c1C2=O | > 4 mM (inactive) |
| O=C(Nc1ccccc1N1CCCC1)c1cccnc1 | > 4 mM (inactive) |
| O=c1c(-c2cc(O)c(O)c(O)c2)coc2cc(O)c(O)c(O)c12 | > 4 mM (inactive) |
| Cc1nn(C)c(C)c1NC(=S)NC1CCCC1 | > 4 mM (inactive) |
| O=C(O)c1onc2ccccc12 | > 4 mM (inactive) |
| Cn1ccnc1C(O)c1ccccc1 (centres undefined) | > 4 mM (inactive) |
| Cc1occc1C(=O)Nc1nnc(-c2ccncc2)s1 | > 4 mM (inactive) |
| COc1ccccc1NC(=O)C1CCC(=O)N1 (centres undefined) | > 4 mM (inactive) |
| O=C(Nc1nncs1)Oc1ccccc1 | > 4 mM (inactive) |
| Oc1cc(O)c2c(c1)O[C@H](c1cc(O)c(O)c(O)c1)[C@H](O)C2 | > 4 mM (inactive) |
| Cc1nc2ccccc2c2c1C(=O)N(N)C2=O | > 4 mM (inactive) |
| NC(=O)CC[C@H](N)C(=O)O | > 4 mM (inactive) |
| Cc1nc(N2CCOCC2)[nH]c(=O)c1C | > 4 mM (inactive) |
| Cn1nc(C(=O)N2CCOCC2)c2ccccc2c1=O | > 4 mM (inactive) |
| OCc1ccc(-n2cccn2)cc1 | > 4 mM (inactive) |
| NCc1ccc(-c2cccs2)cc1 | > 4 mM (inactive) |
| COCCn1c(N)nc2c1c(=O)[nH]c(=O)n2C | > 4 mM (inactive) |
| COc1cc2ccc(=O)oc2c2ccoc12 | > 4 mM (inactive) |
| COc1c2ccoc2c(OC)c2oc(=O)ccc12 | > 4 mM (inactive) |
| O=C(/C=C/c1ccccc1)NC1CCS(=O)(=O)C1 (centres undefined) | > 4 mM (inactive) |
| Nc1cc(=O)[nH]c(SCC(=O)Nc2nccs2)n1 | > 4 mM (inactive) |
| COn1c(=O)c(C)[n+]([O-])c2ccccc21 | > 4 mM (inactive) |
| Cc1[nH]n(-c2ccccc2)c(=O)c1[N+](=O)[O-] | > 4 mM (inactive) |
| CCC(=O)Oc1ccc(N2C(=O)CCC2=O)cc1 | > 4 mM (inactive) |

| SMILES | Kd |
| --- | --- |
| CC(C)=CCC/C(C)=C/CC/C(C)=C/CC/C(C)=C/CC/C(C)=C/CC/C(C)=C/CC/C(C)=C/CC/C(C)=C/CC/C(C)=C/CO | > 4 mM (inactive) |
| CN1C2CC[C@@H]1CC(OC(=O)[C@H](CO)c1ccccc1)C2 (some centres undefined) | > 4 mM (inactive) |
| Cc1cc(=O)[nH]c(N2CCCCC2)n1 | > 4 mM (inactive) |
| CN1CCN(Cc2cccnc2)CC1 | > 4 mM (inactive) |
| COc1ccc2cc1Oc1ccc(cc1)C[C@H]1c3c(cc4c(c3Oc3cc5c(cc3OC)CCN(C)[C@@H]5C2)OCO4)CCN1C | > 4 mM (inactive) |
| c1cncc(C2CCCCN2)c1 (centres undefined) | > 4 mM (inactive) |
| Cn1nc(C(=O)Nc2cccnc2)cc1Cl | > 4 mM (inactive) |
| COCC(=O)Nc1cc2c3c(c1)CCN3C(=O)CC2 | > 4 mM (inactive) |
| O=c1/c(=C/c2ccccc2F)sc2ncnn12 | > 4 mM (inactive) |
| CC(=O)Nc1nnc(-c2ccccn2)o1 | > 4 mM (inactive) |
| CC(C)CCCC(C)[C@H]1CCC2C3CC=C4C[C@@H](O)CC[C@]4(C)C3CC[C@@]21C (some centres undefined) | > 4 mM (inactive) |
| O=C(NN1CCOCC1)c1ccccc1F | > 4 mM (inactive) |
| c1cncc(Cn2cccc2)c1 | > 4 mM (inactive) |
| Cc1c(C(=O)Nc2ccccn2)oc2ccccc12 | > 4 mM (inactive) |
| CCc1sc(C(=O)NC)cc1Br | > 4 mM (inactive) |
| CC(=O)Oc1ccc(-c2nc(-c3cccnc3)no2)cc1 | > 4 mM (inactive) |
| O=C1CNC(=O)N1Cc1ccc(Br)cc1 | > 4 mM (inactive) |
| C/C=C(\C)C(=O)OC1[C@@H]2C=C3C(CC[C@]4(C)C3CC(=O)O[C@H]4c3ccoc3)C(C)(C2=O)[C@@H](C(O)C(=O)OC)C1(C)C (some centres undefined) | > 4 mM (inactive) |
| CN(C)CCCN1CNC(=S)NC1 | > 4 mM (inactive) |
| COCc1cc(C)nc2sc(C(=O)OC)c(N)c12 | > 4 mM (inactive) |
| O=C1NC(=Nc2ccccc2)S/C1=C/c1cccnc1 | > 4 mM (inactive) |
| O=C(O)CNCC(O)Cn1c2ccccc2c2ccccc21 (centres undefined) | > 4 mM (inactive) |
| Cc1onc(-c2c(Cl)cccc2Cl)c1C(N)=O | > 4 mM (inactive) |
| CN1CCC(NC(=S)NC2CC2)CC1 | > 4 mM (inactive) |

| SMILES | Kd |
| --- | --- |
| COc1ccc(NC(=O)CCCC(=O)O)c(OC)c1 | > 4 mM (inactive) |
| CCOC(=O)c1cc(C)n(-n2cnnc2)c1C | > 4 mM (inactive) |
| c1ccc(-n2cnnc2)nc1 | > 4 mM (inactive) |
| COc1cccc(-c2nc(-c3ccccn3)no2)c1OC | > 4 mM (inactive) |
| COC1C(O)C(O)C(O)[C@@H](O)C1O (some centres undefined) | > 4 mM (inactive) |
| Cn1c(SCC(N)=O)nc2c1c(=O)[nH]c(=O)n2C | > 4 mM (inactive) |
| Cc1nnc(NC(=O)C(C)Sc2nncn2C)s1 (centres undefined) | > 4 mM (inactive) |
| CC(=O)c1ccc2c(c1)OCCO2 | > 4 mM (inactive) |
| Cc1ccc(-c2c(C)n([O-])c(C)c(C)[n+]2=O)cc1 | > 4 mM (inactive) |
| Cc1cn(C(=O)CN2C(=O)c3ccccc3C2=O)c(C)n1 | > 4 mM (inactive) |
| O=C1CCCN1c1ccc(S(=O)O)cc1 | > 4 mM (inactive) |
| CC(=O)O[C@@H]1c2c(ccc3ccc(=O)oc23)OC(C)(C)[C@@H]1OC(=O)CC(C)C | > 4 mM (inactive) |
| Cc1cc(C)n(-c2nc(C)nc(N)n2)n1 | > 4 mM (inactive) |
| COc1ncccc1N | > 4 mM (inactive) |
| COc1cc(C(=S)N2CCC(C(N)=O)CC2)ccc1O | > 4 mM (inactive) |
| O=C(Nc1cccc(C(F)(F)F)c1)c1cccnc1 | > 4 mM (inactive) |
| NC(=O)c1ccc(NC(=O)c2cccnc2)cc1 | > 4 mM (inactive) |
| COC(=O)c1cc(-c2c[nH]c3ccccc23)n[nH]1 | > 4 mM (inactive) |
| COC(=O)N1CCN(c2ccc(OC)cc2)CC1 | > 4 mM (inactive) |
| CC(=O)c1c(C)nn(CC(=O)O)c1C | > 4 mM (inactive) |
| CCNC(=S)N1CCCC(C(N)=O)C1 (centres undefined) | > 4 mM (inactive) |
| O=C(O)c1ccc(CSc2ncn[nH]2)cc1 | > 4 mM (inactive) |
| Cc1cc(NC(=O)CSc2nncn2C)no1 | > 4 mM (inactive) |
| CSc1nc(NC(C)(C)C)nc(N2CCOCC2)n1 | > 4 mM (inactive) |

| SMILES | Kd |
| --- | --- |
| c1ccc(CSc2ncccn2)cc1 | > 4 mM (inactive) |
| CC(=O)N1CCc2ccccc2C1CC(=O)O (centres undefined) | > 4 mM (inactive) |
| O=C(NCN1CCOCC1)c1cccnc1 | > 4 mM (inactive) |
| C=C1C[C@]23C[C@@]1(O)CC[C@H]2[C@@]12C=C[C@H](O)C(C)(C(=O)O1)[C@H]2[C@@H]3C(=O)O | > 4 mM (inactive) |
| COC(=O)c1cncn1C | > 4 mM (inactive) |
| Cc1nn2c(=O)nc3sc4c(c3c2[nH]c1=O)CCCC4 | > 4 mM (inactive) |
| OCC1COc2ccccc2C1 (centres undefined) | > 4 mM (inactive) |
| O=C(Nc1cccnc1)c1ccc(Br)s1 | > 4 mM (inactive) |
| NC1=NC(=O)/C(=C/c2cccs2)S1 | > 4 mM (inactive) |
| COc1ccc(C(=O)NNC(=S)NC(C)=O)cc1 | > 4 mM (inactive) |
| COC(=O)c1noc(-c2ccc(OC)cc2)n1 | > 4 mM (inactive) |
| O=C1C2CC=CCC2C(=O)N1c1ccccc1O (centres undefined) | > 4 mM (inactive) |
| CC1=CC(=O)CC(C)(C)C1(O)/C=C/C(C)=C\C(=O)O (centres undefined) | > 4 mM (inactive) |
| CC(C)(C)NC(=O)N1CCC(C(N)=O)CC1 | > 4 mM (inactive) |
| CN1CCC(N2CCOCC2)CC1 | > 4 mM (inactive) |
| Cc1occc1C(=O)N1CCN(S(C)(=O)=O)CC1 | > 4 mM (inactive) |
| COc1cccc(N2CCNCC2)c1 | > 4 mM (inactive) |
| COc1ccc(-c2cc3nc4n(c(=O)c3s2)CCC4)cc1 | > 4 mM (inactive) |
| Cc1ccc(SCc2cc(=O)n3[nH]c(C)nc3n2)cc1 | > 4 mM (inactive) |
| CC[C@@H]1[C@@H](O)N2C3C[C@H]1C1C(O)[C@]4(C[C@@H]12)c1ccccc1N(C)[C@@H]34 (some centres undefined) | > 4 mM (inactive) |
| Cc1cc(C(=O)Nc2ccc3c(c2)OCO3)cs1 | > 4 mM (inactive) |
| CCCNC(CC(=O)Nc1cccnc1)C(=O)O (centres undefined) | > 4 mM (inactive) |
| O=C(O)c1cncc(-c2ccccc2)c1 | > 4 mM (inactive) |
| COc1c(-c2ccccc2)oc2c(OC)cccc2c1=O | > 4 mM (inactive) |

| SMILES | Kd |
| --- | --- |
| O=C1NCCCC1C(=O)N/N=C/c1ccccc1 (centres undefined) | > 4 mM (inactive) |
| Cc1noc(C)c1C(=O)NCc1ccco1 | > 4 mM (inactive) |
| NC1CS(=O)(=O)CC1O (centres undefined) | > 4 mM (inactive) |
| c1coc(-c2nc(-c3ccncc3)no2)c1 | > 4 mM (inactive) |
| Nc1cc2ccccc2cn1 | > 4 mM (inactive) |
| CN(C)/C=N/S(=O)(=O)c1ccccc1 | > 4 mM (inactive) |
| CN(C)CC(O)C1CCOC(C)(C)C1 (centres undefined) | > 4 mM (inactive) |
| O=C(NCCO)c1cc2ccccc2c(=O)s1 | > 4 mM (inactive) |
| COc1cccc(NC(=O)c2cccs2)c1 | > 4 mM (inactive) |
| Cc1oc(S(=O)(=O)N2CCCCC2)cc1C(=O)O | > 4 mM (inactive) |
| NCc1ccc2c(c1)OCCO2 | > 4 mM (inactive) |
| C[C@@H]1CC[C@]2(C(=O)O)CC[C@]3(C)C(=CCC4[C@@]5(C)CC[C@H](O)C(C)(C)C5CC[C@]43C)C2[C@H]1C (some centres undefined) | > 4 mM (inactive) |
| CNC(=O)C1=NCCCc2cc(OC)c(OC)cc21 | > 4 mM (inactive) |
| CNC(Cc1c[nH]c2ccccc12)C(=O)O (centres undefined) | > 4 mM (inactive) |
| COc1ccc2c(c1)OC/C(=C\c1ccc(OC)c(O)c1)C2=O | > 4 mM (inactive) |
| NC(=O)CSc1nnnn1-c1ccccc1 | > 4 mM (inactive) |
| c1ccc2c(c1)ncn2CCn1cnc2ccccc21 | > 4 mM (inactive) |
| CC(=O)NN1C(=O)/C(=C\c2ccc(O)cc2)SC1=S | > 4 mM (inactive) |
| COC(=O)C[C@H]1C(C)(C)C(=O)[C@@H]2CC3=C(CC[C@]4(C)C3=CC(=O)O[C@H]4c3ccoc3)C1(C)C2=O | > 4 mM (inactive) |
| NC(=O)c1ccc(N=Cc2ccc[nH]2)cc1 | > 4 mM (inactive) |
| CCOC(=O)CNC(=O)CSc1nnc(C)c(=O)[nH]1 | > 4 mM (inactive) |
| CCOC(=O)C1C(=O)C2CCN1CC2 (centres undefined) | > 4 mM (inactive) |
| CCCCCCCCCCCCCCC(C(=O)O)C(O)(CC(=O)OC)C(=O)O (centres undefined) | > 4 mM (inactive) |
